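In this assay, cells in 96-well plates receive the compound at five concentrations for 48 hours. Endpoints are linearly interpolated between the surrounding concentrations. The concentration for 50% growth inhibition is given as GI50. Definition used: TGI = concentration required for complete inhibition of growth.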
Experiments:
Test in all cases: inhibition of tumour cell growth, NCI panel, 48 h
SK-MEL-2 melanoma = tested on: SK-MEL-2 melanoma
A498 renal = tested on: A498 renal
PC-3 prostate = tested on: PC-3 prostate
MCF7 breast = tested on: MCF7 breast
SF-539 CNS = tested on: SF-539 CNS
OVCAR-5 ovarian = tested on: OVCAR-5 ovarian
MDA-MB-231 breast = tested on: MDA-MB-231 breast
UACC-257 melanoma = tested on: UACC-257 melanoma
KM20L2 colon = tested on: KM20L2 colon
SNB-78 CNS = tested on: SNB-78 CNS

Compound	GI50 (SK-MEL-2 melanoma)	TGI (SK-MEL-2 melanoma)	GI50 (A498 renal)	TGI (A498 renal)	GI50 (PC-3 prostate)	TGI (PC-3 prostate)	GI50 (MCF7 breast)	TGI (MCF7 breast)	GI50 (SF-539 CNS)	TGI (SF-539 CNS)	GI50 (OVCAR-5 ovarian)	TGI (OVCAR-5 ovarian)	GI50 (MDA-MB-231 breast)	TGI (MDA-MB-231 breast)	GI50 (UACC-257 melanoma)	TGI (UACC-257 melanoma)	TGI (KM20L2 colon)	GI50 (KM20L2 colon)	GI50 (SNB-78 CNS)	TGI (SNB-78 CNS)
CCSc1nc(N2CCCCC2)c2cn[nH]c2n1	39.8 µM	> 100 µM	10.5 µM	41 µM	20.7 µM	79.1 µM	22.8 µM	71.7 µM	12.4 µM	48.3 µM	88.7 µM	> 100 µM	11.6 µM	> 100 µM	58.7 µM	> 100 µM	–	–	–	–
CC(=O)NC(CCCCNC(=O)OC(C)(C)C)C(=O)O (configuration not stated)	–	–	–	> 100 µM	–	> 100 µM	–	> 100 µM	–	–	–	> 100 µM	–	> 100 µM	–	> 100 µM	–	–	–	–
CCN(CC)CCC(=O)c1ccccc1	–	> 100 µM	–	–	–	–	–	–	–	44.2 µM	–	40.9 µM	–	–	–	61.4 µM	49.5 µM	–	–	–
O=C(O)/C=C/c1cnc[nH]1	–	> 500 µM	–	> 500 µM	–	–	–	> 500 µM	–	> 500 µM	–	> 500 µM	–	–	–	> 500 µM	> 500 µM	> 500 µM	> 500 µM	> 500 µM
COc1cccc(C2C(C(=O)O)=C(CO)Oc3cc4c(cc32)OCO4)c1 (configuration not stated)	–	> 100 µM	–	> 100 µM	–	–	–	–	–	> 100 µM	–	–	–	–	–	–	> 100 µM	–	–	> 100 µM
CCOc1ccc(N=Nc2ccc3oc(=O)c(/C(C)=N\NC(=O)CC(=O)Nc4ccc(Cl)cc4)cc3c2)cc1	–	9.32 µM	–	–	–	–	–	–	–	33.5 µM	–	> 100 µM	–	–	–	–	> 100 µM	–	–	> 100 µM
CCOC(=O)C1(C(=O)OCC)CSC1	–	–	–	> 100 µM	–	> 100 µM	–	> 100 µM	–	–	–	–	–	> 100 µM	–	> 100 µM	–	–	–	–

Reference: PubChem BioAssay (NCI)
